# From US11986458B1, “Natural and synthetic andrographolides compounds for the treatment of skeletal muscular dystrophies” (Innobiosciences LLC, priority 2018, dated 2024)
# Experiments:
# [1] = system: patients with Duchenne Muscular Dystrophy; experiment: PedsQL for Duchenne Muscular Dystrophy Module questionnaire in pediatric DMD patients; assay type: in vivo, human; settings: 70 mg orally twice per day
# Method: Thirteen pediatric patients were derived from the Chilean Duchenne Association with confirmed clinical diagnostic. Of the thirteen patients, seven of them used chronic glucocorticoid treatment (Table A). Two of the patients had disease advanced enough so that the patients were no longer ambulatory.
# All patients, both those treated with glucocorticoid and those not requiring glucocorticoid, received 70 mg andrographolide (as a standardized extract) orally two times per day. Treatment periods ranged from one month to more than twelve months. […] (Table B)
# Thirteen (13) children with DMD of different ages (ranging from 4 to 14 years old) were treated with Andrographis paniculata capsules (either taking corticosteroids or not) for a variable period of time (ranging from one month to two years) (Table A).
# Each parent or tutor received a questionnaire with different scores parameters to be completed. The parents were asked to fill out the Pediatric Quality of Life Inventory TM questionnaire (PedsQL for Duchenne Muscular Dystrophy Module) of their perception about; Quality of life, Sleep, Pain, Cold, Walk/Move, Play/Run, Jump, Coordination, Force and Mood of children during Andrographis paniculata treatment (Table B).
# mdx mice [2] = experiment: Skeletal muscle histology (H&E) and collagen type I indirect immunofluorescence, tibialis anterior of mdx mice; assay type: in vivo, mouse; settings: 3 months administration; for damaged areas in muscle, Hematoxylin and Eosin staining: tibialis anterior, compared to vehicle-treated mdx mice
# Method: We used 12-week-old control or mdx male mice of the C57BL/10 ScSn strain. The animals were kept at room temperature with a 24-hour night-day cycle and were fed with pellets and water ad libitum. Experimental exercise involved running the mice on a treadmill three times per week for 30 minutes each session at 12 m/minute over three or four months. See Morales, MG. et al., Reducing CTGF/CCN2 Slows Down MDX Muscle Dystrophy And Improves Cell Therapy, 22 Hum Mol Genet 4938 (2013), DeLuca, A. et al., Enhanced Dystrophic Progression In MDX Mice By Exercise And Beneficial Effects Of Taurine And Insulin-Like Growth Factor-1, 304 J Pharmacol Exp Ther 453 (2003), DeLuca, A. et al., A Multidisciplinary Evaluation Of The Effectiveness Of Cyclosporine A In Dystrophic MDX Mice, 166 Am J Pathol 477 (2005), Cabello-Verrugio, C. et al., Angiotensin II Receptor Type 1 Blockade CTGF/CCN2-Mediated Damage And Fibrosis In Normal And Dytrophic Skeletal Muscles, 16 J Cell Mol Med 752 (2012). Four experimental groups were designed: animals in the first group were injected intraperitoneally (ip) with andrographolide (1.0 mg/kg/day). Animals in the second group were treated with prednisone (5 mg/kg). Third group, animals were treated with prednisone together with andrographolide. Fourth group animals were injected with saline. At the end of the experiment the muscles were dissected and removed under anesthesia (isofluorane gas) and then the animals were sacrificed. Tissues were used for electrophysiological measurement or rapidly frozen and stored at −80° C. until processing. All protocols were conducted in strict accordance with guidelines and with the formal approval of the Animal Ethics Committee of the Pontificia Universidad Católica de Chile.
# Architecture and histology were detected by hematoxylin-eosin (H&E) stain in transverse sections of muscle. See Morales, MG. et al., CTGF/CCN-2 Over-Expression Can Directly Induce Features Of Skeletal Muscle Dystrophy, 225 J Pathol 490 (2011). Collagen Type I was determined as described in Morales, MG. et al., Reducing CTGF/CCN2 Slows Down MDX Muscle Dystrophy And Improves Cell Therapy, 22 Hum Mol Genet 4938 (2013).
# Tissue samples evaluated using collagen type I immuno-staining. […] We posit that this prevents tissue damage in mdx mice.
# mdx mice [3] = experiment: Life expectancy / survival of mdx mice under life-long treatment; assay type: in vivo, mouse
# Method: Groups of mdx mice were treated with or without andrographolide (1.0 mg/kg/day) 3 times per weeks starting at one month old until they die naturally. The animals were maintained under free food and water access all the time. Days of death was recorded.
# To evaluate whether andrographolide affects survival in dystrophic mice we perform a long term treatment with andrographolide through intra-peritoneal injections, three times per weeks starting at one month old until they die naturally, in order to determine the effects over life expectancy in mdx mice.
# MES-13 cells = settings: cited from earlier work; for intracellular oxidative states: high glucose cultured MES-13 cells
# mdx mouse = settings: cited from earlier work
# [4] = system: cholestasis-induced apoptosis; settings: in vivo; cited from earlier work
# CTGF = settings: in vitro (skeletal cells); cited from earlier work
# mdx mice [5] = experiment: Isometric force of isolated muscles from treated exercised mdx mice; assay type: in vivo, mouse; settings: treadmill exercise, andrographolide 1.0 mg/kg/day ip, prednisone 5 mg/kg, single electro-stimulation and high frequency stimulation
# Method: We used 12-week-old control or mdx male mice of the C57BL/10 ScSn strain. The animals were kept at room temperature with a 24-hour night-day cycle and were fed with pellets and water ad libitum. Experimental exercise involved running the mice on a treadmill three times per week for 30 minutes each session at 12 m/minute over three or four months. […]
# The isometric force of isolated muscles was measured as described previously. Briefly, optimum muscle length (Lo) and stimulation voltage were determined from micromanipulation of muscle length to produce maximum isometric twitch force. Maximum isometric tetanic force (Po) was determined from the plateau of the frequency-force relationship after successive stimulations at 1 to 200 Hz for 450 ms, with 2-minute rests between stimuli. […]
# dystrophin [6] = settings: mdx mice; cited from earlier work
# dystrophin [7] = settings: cited from earlier work
# DMD = settings: glucocorticoids such as prednisone; cited from earlier work
# [8] = 12 DMD patients over a six-month period
compound,measurement,setting,value
"C=C1CC[C@@H]2[C@](C)(CO)[C@H](O)CC[C@@]2(C)[C@@H]1C/C=C1/C(=O)OC[C@H]1O [andrographolide, 3-[2-[Decahydro-6-hydroxy-5-(hydroxymethyl)-5,8a-dimethyl-2-methylene-1-napthalenyl]ethylidene]dihydro-4-hydroxy-2(3H)-furanone]","improvement in quality of life, quality of sleep, pain, colds, coordination, force and mood",[1]; 13 DMD patients,important improvement
same,overall effect on PedsQL parameters,"[1]; all 13 DMD patients, one month to more than twelve months",slight to important improvement
same,"fibrosis, collagen type I immuno-staining",mdx mice [2],diminish fibrosis
same,"damaged areas in muscle, Hematoxylin and Eosin staining",mdx mice [2],prevented the increase of damaged areas
same,total life expectancy,"mdx mice [3]; mdx mice, 1.0 mg/kg/day ip three times per week from one month old until natural death, n=6",around 21.7±2.35 months
same,increase of life expectancy of dystrophic mice,mdx mice [3]; versus vehicle-treated mdx mice,15%
same,phenotypes indicating diabetic nephropathy,MES-13 cells; MES-13 cells,reduced the phenotypes indicating diabetic nephropathy
same,antioxidant ability in a cellular environment,MES-13 cells,do not have antioxidant ability
same,intracellular oxidative states,MES-13 cells,reduced intracellular oxidative states
same,muscle associated fibrosis,"mdx mouse; animal model of DMD, the mdx mouse",significantly reduces muscle associated fibrosis
same,exercise resistance in dystrophic mice,mdx mouse; mdx mouse,increase exercise resistance
same,skeletal muscle force in dystrophic muscles,mdx mouse; mdx mouse,increase
same,protection against cholestasis-induced apoptosis,[4],potent protector
same,expression of pro-fibrotic factor CTGF,CTGF,able to inhibit
same,isolated muscle strength (maximal switch force and tetanic contraction),mdx mice [5],improved muscle contraction at similar levels than the induced by prednisone
"C=C1CCC2C(C)(CO)C(O)CCC2(C)C1C=CC1=CCOC1=O (stereo not drawn) [AP2, 14-deoxy-11,12-didehydro-andrographolide]","reduction of apoptosis marker caspase-3, fibrosis marker TGF-β1, and PAI-1","MES-13 cells; MES-13 cells, comparison AP2 vs AP1",more potent activity than AP1
same,phenotypes indicating diabetic nephropathy,MES-13 cells; MES-13 cells,reduced the phenotypes indicating diabetic nephropathy
same,antioxidant ability in a cellular environment,MES-13 cells,do not have antioxidant ability
same,intracellular oxidative states,MES-13 cells,reduced intracellular oxidative states
gentamicin,dystrophin expression in muscle fibers above normal levels,dystrophin [6],20%
same,clinical benefits,dystrophin [7]; [8],no clinical benefits were observed
same,patients with dystrophin expression detected,dystrophin [7]; [8],6 of the 12
same,muscle strength and re-expression of dystrophin in muscles,dystrophin [7]; one of the studies on DMD patients,beneficial effect on muscle strength and a re-expression of dystrophin in muscles
"C[C@]12C=CC(=O)C=C1CC[C@@H]1[C@@H]2C(=O)C[C@@]2(C)[C@H]1CC[C@]2(O)C(=O)CO [prednisone, reference compound]",side effects,DMD,severe side effects
same,"fibrosis, collagen type I immuno-staining",mdx mice [2],diminish fibrosis
same,"damaged areas in muscle, Hematoxylin and Eosin staining",mdx mice [2],prevented the increase of damaged areas
same,isolated muscle strength (maximal switch force and tetanic contraction),mdx mice [5],improved muscle contraction
